Our source for the IC50 values is patent publication US20230117470A1, “SUBSTITUTED PYRAZOLE COMPOUNDS AS TOLL RECEPTOR INHIBITORS” (BRISTOL-MYERS SQUIBB COMPANY, priority 2019, published 2023).

pIC50: −log10 of the molar value.

Common to all, as to type: cell-based
In test [1] the target is T1, human TLR7 (Homo sapiens, UniProt Q9NYK1).
T1 construct: host or cells: HEK-Blue cells
T1 sequence (Q9NYK1 27-1049): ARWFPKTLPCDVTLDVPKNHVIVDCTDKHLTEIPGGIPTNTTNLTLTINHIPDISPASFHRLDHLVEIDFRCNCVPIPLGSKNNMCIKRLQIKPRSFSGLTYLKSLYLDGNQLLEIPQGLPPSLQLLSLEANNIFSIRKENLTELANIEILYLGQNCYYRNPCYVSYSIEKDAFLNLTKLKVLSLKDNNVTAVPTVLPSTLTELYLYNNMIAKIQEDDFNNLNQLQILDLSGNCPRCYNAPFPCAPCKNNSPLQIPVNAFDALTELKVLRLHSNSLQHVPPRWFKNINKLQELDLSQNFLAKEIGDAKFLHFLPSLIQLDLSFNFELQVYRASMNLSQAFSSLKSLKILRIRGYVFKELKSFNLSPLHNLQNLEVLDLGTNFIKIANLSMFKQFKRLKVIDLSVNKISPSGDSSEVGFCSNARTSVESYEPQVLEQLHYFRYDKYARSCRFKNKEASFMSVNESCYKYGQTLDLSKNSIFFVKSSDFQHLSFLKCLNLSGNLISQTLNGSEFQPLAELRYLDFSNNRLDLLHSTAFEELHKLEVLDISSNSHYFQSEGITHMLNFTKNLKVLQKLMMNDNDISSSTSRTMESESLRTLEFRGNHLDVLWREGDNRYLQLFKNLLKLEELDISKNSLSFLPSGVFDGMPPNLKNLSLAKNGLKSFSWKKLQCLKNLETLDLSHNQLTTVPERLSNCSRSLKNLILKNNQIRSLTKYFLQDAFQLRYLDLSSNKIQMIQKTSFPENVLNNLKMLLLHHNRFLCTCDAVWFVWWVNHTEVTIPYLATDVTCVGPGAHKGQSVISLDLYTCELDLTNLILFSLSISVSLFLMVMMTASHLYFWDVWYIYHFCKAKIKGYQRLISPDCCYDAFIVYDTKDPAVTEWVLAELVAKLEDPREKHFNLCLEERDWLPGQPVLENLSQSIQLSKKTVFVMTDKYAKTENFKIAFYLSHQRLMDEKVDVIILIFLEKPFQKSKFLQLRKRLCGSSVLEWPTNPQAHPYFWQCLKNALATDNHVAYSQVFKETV
Kind of test: TLR7 inhibition reporter assay (HEK-Blue cells, SEAP reporter, gardiquimod stimulation). Conditions: HEK-Blue cells overexpressing human TLR7, SEAP reporter, gardiquimod 7.5 μM. An outline of the steps: (§1)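 Cells were pre-treated 30 min at room temperature with compound (final 0.05 nM–50 μM), then stimulated with gardiquimod 7.5 μM (TLR7), R848 15.9 μM (TLR8) or ODN2006 5 nM (TLR9). SEAP was read after 22 h at 37° C; percent inhibition scaled between agonist+DMSO and known-inhibitor wells.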

In test [2] the target is T2, human TLR8 (Homo sapiens, UniProt Q9NR97).
T2 construct: host or cells: HEK-Blue cells
T2 sequence (Q9NR97 27-1041): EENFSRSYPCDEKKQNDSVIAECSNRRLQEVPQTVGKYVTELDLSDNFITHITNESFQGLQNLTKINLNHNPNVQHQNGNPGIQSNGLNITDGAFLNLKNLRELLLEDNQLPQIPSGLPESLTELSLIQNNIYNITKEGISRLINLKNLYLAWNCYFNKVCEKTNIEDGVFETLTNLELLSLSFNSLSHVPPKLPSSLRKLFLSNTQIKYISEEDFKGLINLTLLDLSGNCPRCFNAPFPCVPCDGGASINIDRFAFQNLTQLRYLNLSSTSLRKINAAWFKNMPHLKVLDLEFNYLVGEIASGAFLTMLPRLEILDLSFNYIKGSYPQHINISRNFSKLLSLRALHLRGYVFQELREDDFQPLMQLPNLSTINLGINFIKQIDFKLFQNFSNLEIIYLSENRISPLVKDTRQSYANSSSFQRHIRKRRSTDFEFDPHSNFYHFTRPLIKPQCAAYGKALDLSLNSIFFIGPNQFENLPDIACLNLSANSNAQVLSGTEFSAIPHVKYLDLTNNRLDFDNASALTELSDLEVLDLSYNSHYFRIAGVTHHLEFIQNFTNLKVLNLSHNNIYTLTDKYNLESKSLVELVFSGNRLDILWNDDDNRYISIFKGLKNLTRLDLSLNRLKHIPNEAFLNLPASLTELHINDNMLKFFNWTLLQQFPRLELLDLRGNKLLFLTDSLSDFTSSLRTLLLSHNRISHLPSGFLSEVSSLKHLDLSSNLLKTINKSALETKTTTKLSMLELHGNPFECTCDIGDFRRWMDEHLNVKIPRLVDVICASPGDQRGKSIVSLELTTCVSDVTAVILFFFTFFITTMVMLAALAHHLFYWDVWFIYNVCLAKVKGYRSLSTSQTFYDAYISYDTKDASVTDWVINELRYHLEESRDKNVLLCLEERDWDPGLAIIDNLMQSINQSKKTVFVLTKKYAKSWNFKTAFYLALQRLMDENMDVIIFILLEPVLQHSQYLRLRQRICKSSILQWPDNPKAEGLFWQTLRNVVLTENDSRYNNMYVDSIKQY
Kind of test: TLR8 inhibition reporter assay (HEK-Blue cells, SEAP reporter, R848 stimulation). Conditions: HEK-Blue cells overexpressing human TLR8, SEAP reporter, R848 15.9 μM. An outline of the steps:
as §1

In test [3] the target is T3, human TLR9 (Homo sapiens, UniProt Q9NR96).
T3 construct: host or cells: HEK-Blue cells
T3 sequence (Q9NR96 26-1032): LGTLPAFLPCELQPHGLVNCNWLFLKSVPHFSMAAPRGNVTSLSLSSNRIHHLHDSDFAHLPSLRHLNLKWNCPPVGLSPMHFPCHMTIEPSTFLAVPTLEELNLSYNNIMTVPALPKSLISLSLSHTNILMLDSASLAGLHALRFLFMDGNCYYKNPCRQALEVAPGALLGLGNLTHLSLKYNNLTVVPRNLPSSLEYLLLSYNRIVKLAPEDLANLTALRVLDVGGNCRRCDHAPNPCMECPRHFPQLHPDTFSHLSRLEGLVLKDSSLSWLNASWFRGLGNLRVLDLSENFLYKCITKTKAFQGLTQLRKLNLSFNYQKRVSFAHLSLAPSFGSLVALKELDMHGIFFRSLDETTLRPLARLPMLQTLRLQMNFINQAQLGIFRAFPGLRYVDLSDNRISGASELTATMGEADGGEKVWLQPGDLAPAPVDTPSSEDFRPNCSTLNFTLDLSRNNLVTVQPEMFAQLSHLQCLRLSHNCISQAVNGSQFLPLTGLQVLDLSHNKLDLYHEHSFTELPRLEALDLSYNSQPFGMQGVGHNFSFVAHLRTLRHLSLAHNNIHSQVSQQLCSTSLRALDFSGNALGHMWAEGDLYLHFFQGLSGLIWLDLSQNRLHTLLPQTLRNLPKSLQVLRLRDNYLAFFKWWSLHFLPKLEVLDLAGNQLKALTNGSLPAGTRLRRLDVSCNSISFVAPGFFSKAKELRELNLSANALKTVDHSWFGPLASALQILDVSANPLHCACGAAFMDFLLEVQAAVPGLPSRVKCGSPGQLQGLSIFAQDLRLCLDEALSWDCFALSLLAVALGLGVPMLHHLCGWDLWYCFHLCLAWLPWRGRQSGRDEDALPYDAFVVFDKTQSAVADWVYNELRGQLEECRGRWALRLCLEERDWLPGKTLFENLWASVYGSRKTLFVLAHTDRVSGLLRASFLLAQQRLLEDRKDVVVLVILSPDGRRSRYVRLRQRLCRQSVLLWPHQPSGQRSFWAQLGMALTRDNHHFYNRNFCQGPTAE
Kind of test: TLR9 inhibition reporter assay (HEK-Blue cells, SEAP reporter, ODN2006 stimulation). Conditions: HEK-Blue cells overexpressing human TLR9, SEAP reporter, ODN2006 5 nM. An outline of the steps: as §1

With `Cc1cc(-c2[nH]nc(C(=O)NC3CCNCC3)c2CC(F)(F)F)cn2ncnc12` [compound 194], the pIC50 is 9.05 in test [1], 9.43 in test [2] and 5.04 in test [3].

As to `Cc1cc(-c2[nH]nc(C(=O)NC3CCOCC3)c2C(C)C)cn2ncnc12` [Example 28], the pIC50 in test [1] is 7.41; in test [2], 6.58; in test [3], 6.19.

Consider `COc1cc(-c2[nH]nc(-c3ccc(C4CCN(CC(C)(C)O)CC4)cc3)c2C(C)C)cn2ncnc12` [Example 319], for which the figures for the pIC50 in test [1], in test [2] and in test [3] were 8.42, 9.28 and 4.71, respectively.

With `COc1cc(-c2[nH]nc(C(=O)NCC(C)(C)N3CCOCC3)c2C(C)C)cn2ncnc12` [Example 26], the pIC50 is 6.35 in test [1], 6.38 in test [2] and 5.14 in test [3].

With `Cc1cc(-c2[nH]nc(-c3ccc(C4CCN(C)CC4)nn3)c2C(C)C)cn2ncnc12` [Example 357], the figures for the pIC50 in test [1], in test [2] and in test [3] were 5.89, below 5.51 and 4.42, respectively.

As to `Cc1cc(-c2[nH]nc(C(=O)N3CC[C@H](N(C)C)C3)c2C(C)C)cn2ncnc12` [Example 22], the pIC50 in test [1] was 8.91; in test [2], 9.05; in test [3] it was 5.31.

As for `CCN1CCc2nc(-c3n[nH]c(-c4cc(C)c5ncnn5c4)c3C(C)C)ncc2C1` [Example 249], the pIC50 in test [1] is 8.20; in test [2] it was 8.92; in test [3], 4.70.

Turning to `COc1cc(-c2[nH]nc(-c3cnc(C4CCN(CCF)CC4)cn3)c2C(C)C)cn2ncnc12` [Example 398], the pIC50 in test [1] is 6.86; in test [2], 6.44; in test [3], below 4.30.

`Cc1cc(-c2[nH]nc(-c3ccc(NC(C)C)nc3)c2C(C)C)cn2ncnc12` [Example 240]: the pIC50 in test [1] is 8.43; in test [2], 8.55; in test [3], 5.21.

As to `Cc1cc(-c2[nH]nc(-c3nc4c(s3)CN(C3CCN(C(C)C)CC3)CC4)c2C(C)C)cn2ncnc12` [Example 254], the pIC50 is 7.57 in test [1], 7.64 in test [2] and 4.54 in test [3].

For the compound `Cc1cc(-c2[nH]nc(C(=O)N3CCC(C(N)=O)CC3)c2C(C)C)cn2ncnc12` [Example 15], the pIC50 in test [1] is 8.38; in test [2], 8.50; in test [3], 5.11.

As for `Cc1cc(-c2[nH]nc(C(=O)NC3CCN(C(C)C(C)C)CC3)c2C(C)C)cn2ncnc12` (stereo not drawn) [Example 125], the results for the negative logarithm of the IC50 (pIC50) in test [1], in test [2] and in test [3] were 8.24, 7.59 and 5.27, respectively.

With `Cc1cc(-c2[nH]nc(C(=O)NC3CCN(C(C)C)CC3)c2C(C)C)cc(C)n1` [Example 36], the pIC50 in test [1] is 5.89; in test [2], 5.81; in test [3], 4.60.

On to `Cc1cc(-c2[nH]nc(C(=O)N[C@H]3CC[C@@H](NC(C)C)CC3)c2C(C)C)cn2ncnc12` [Example 85], for which the pIC50 in test [1] was 8.58; in test [2], 7.76; in test [3], 5.16.

For the compound `Cc1cc(-c2[nH]nc(C(=O)C(=O)NC3CCN(C(C)C)CC3)c2C(C)C)cn2ncnc12` [Example 183, 2-(4-isopropyl-5-(8-methyl-[1,2,4]triazolo[1,5-a]pyridin-6-yl)-1H-pyrazol-3-yl)-N-(1-isopropylpiperidin-4-yl)-2-oxoacetamide], the pIC50 is 8.05 in test [1], 8.03 in test [2] and 5.17 in test [3].

Take `Cc1cc(-c2[nH]nc(C(=O)NC3CCC(NCC(C)(C)C)CC3)c2C(C)C)cn2ncnc12` (stereo not drawn) [Example 126]: the pIC50 in test [1] was 9.01; in test [2], 8.17; in test [3], 4.88.

With `Cc1cc(-c2[nH]nc(C(=O)NC[C@@H]3CCCN3)c2C(C)C)cn2ncnc12` [Example 51], the pIC50 in test [1] was 8.80; in test [2], 8.99; in test [3], 5.06.

In the case of `Cc1cc(-c2[nH]nc(-c3cccnc3)c2C(C)C)cn2ncnc12` [Example 224], the pIC50 in test [1] was 9.25; in test [2] it was 9.20; in test [3], 5.04.

As for `Cc1cc(-c2[nH]nc(C(=O)N3CCC(CN)CC3)c2C(C)C)cn2ncnc12` [Example 61], the results for the pIC50 in test [1], in test [2] and in test [3] were 7.64, 8.27 and below 4.30, respectively.

Consider `Cc1cc(-c2[nH]nc(-c3ccc(C4CN(CC(C)(C)O)C4)cc3)c2C(C)C)cn2ncnc12` [Example 336, 1-(3-(4-(4-isopropyl-5-(8-methyl-[1,2,4]triazolo[1,5-a]pyridin-6-yl)-1H-pyrazol-3-yl)phenyl)azetidin-1-yl)-2-methylpropan-2-ol], for which the pIC50 in test [1] was 7.87; in test [2], 7.40; in test [3], 4.42.

Regarding `Cc1cc(-c2[nH]nc(C(=O)NC3CCN(CC(C)(C)C)CC3)c2C(C)C)cn2ncnc12` [Example 74], the pIC50 was 9.15 in test [1], 8.46 in test [2] and 5.72 in test [3].
